Laboratory results taken from US4771068A, “Mitomycin derivatives having anti-tumor and antibacterial utility” (priority 1985, dated 1988).
Converted amounts (≈) assume the structure as drawn.

Experiments:
[1] = tested on: Proteus vulgalis ATCC 6897; assay: Antibacterial activity (minimum growth inhibitory concentration), agar dilution method; type: cell-based; conditions: pH 7, read-out: minimum growth inhibitory concentration, PV
Experimental: (§1) Antibacterial activities of Compounds (I) against various bacteria are shown by the minimum growth inhibitory concentration (μg/ml) in Table 3. The minimum growth inhibitory concentration was measured at pH 7.0 according to the agar dilution method. In the table, bacteria are indicated by the following letters.
PV: Proteus vulgalis ATCC 6897

peripheral leucocytes = assay: Effect on the peripheral leucocytes number; type: in vivo, mouse (ddY strain); conditions: minimum dose reducing peripheral leucocytes number to 4000/mm^3; tumour-carrying ddY mice, intraperitoneal, 4 days after administration
Experimental: WBC4000 : Minimum dose of a test compound which reduces the
peripheral leucocytes number to 4000/mm^3.
Sarcoma 180 solid tumour cells (5×10^6) were subcutaneously implanted into the right axilla of each mouse (body weight 20±2 g) of a group consisting of 5 male mice (ddY strain). 24 hours after implantation,a test compound was intraperitoneally administered to each animal. 4 days after the administration, blood (each 0.02 ml) was collected from the suborbital plexus vein of each tumour-carrying animal. The collected sample of blood was dispersed in 9.98 ml of Cell-Kit Seven solution. One drop of saponin solution was added to the sample to dissolve erythrocytes and then a microcell counter was used to count the number of leucocytes. […] The relationship between the number of peripheral leucocytes and the dose of the test compound was plotted and the dose (i.e., WBC4000) corresponding to 4000 peripheral leucocytes/mm^3 (about half the number of leucocytes of normal mice) was obtained.

[2] = tested on: Klebsiella pneumoniae ATCC 10031; assay: Antibacterial activity (minimum growth inhibitory concentration), agar dilution method; type: cell-based; conditions: ATCC10031; Klebsiella pneumoniae ATCC 10031, pH 7.0, agar dilution method; read-out: minimum growth inhibitory concentration, KP
Experimental: as §1
KP: Klebsiella pneumoniae ATCC 10031

[3] = tested on: Streptococcus faecalis ATCC 10541; assay: as above; type: cell-based; conditions: Enterococcus faecalis, ATCC10541; Streptococcus faecalis ATCC 10541, pH 7.0, agar dilution method; read-out: minimum growth inhibitory concentration, SF
Experimental: as §1
SF: Streptococcus faecalis ATCC 10541

Bacillus subtilis 10707 = assay: as above; type: cell-based; conditions: Bacillus subtilis 10707, pH 7.0, agar dilution method; read-out: minimum growth inhibitory concentration, BS
Experimental: as §1
BS: Bacillus subtilis 10707

Sarcoma 180 solid tumour = assay: animal or person; conditions: for CIc: CI of test compound divided by CI of mitomycin C as control in the same condition; for ED50: Mus musculus, Sarcoma-180, iv, 168 h; for CI (LD50/ED50): chemotherapeutic index
Description: CIc : Value given by division of CI of each test compound by CI of
determination of antitumour activity of the test compound. A CIc
5×10^6 cells of Sarcoma 180 solid tumour were intraperitoneally implanted into ddY mice. 7 days later, ascites cells were sampled. The cells were washed once with a sterilized physiological sodium chloride solution and were used to prepare a cell suspension containing 5×10^7 cells per ml with a sterilized physiological sodium chloride solution. On each occasion, 0.1 ml of the cell suspension was subcutaneously implanted into the right axilla of a male mouse (ddY strain; body weight 20±2 g).
The anti-tumour activity was determined in the following manner. 7 days after the implantation, the major axis (a) and the minor axis (b) of the tumour were measured to calculate a value of "a×b^2 /2" which corresponds to the volume of the tumour. The anti-tumour activity was expressed by the ratio (T/C) of the volume (T) of the tumours of the group of animals administered with the test compound to the corresponding volume (C) of tumours of the untreated animals.
On graph paper, T/C was indicated by an arithmetic scale on the longitudinal axis and the administered amount of the test compound was indicated by a logarithmic scale on the lateral axis.

Acute toxicity = conditions: mouse, in vivo, ip; ddY mice, intraperitoneally once, 14 days observation
Experimental: Each animal of the test group consisting of 5 ddY mice was administered intraperitoneally once with a test compound. […] The LD50 was determined by Beherns Kaerber's method.

[4] = tested on: Staphylococcus aureus ATCC 6538P; assay: Antibacterial activity (minimum growth inhibitory concentration), agar dilution method; type: cell-based; conditions: ATCC6538P, pH 7.0, agar dilution method, read-out: minimum growth inhibitory concentration, SA
Experimental: as §1
SA: Staphylococcus aureus ATCC 6538P

| Structure (SMILES) | MIC [1] | WBC4000 (peripheral leucocytes) | MIC [2] | MIC [3] | MIC (Bacillus subtilis 10707) | CIc (Sarcoma 180 solid tumour) | ED50 (Sarcoma 180 solid tumour) | CI (LD50/ED50) (Sarcoma 180 solid tumour) | LD50 at 336 h (Acute toxicity) | MIC [4] |
| --- | --- | --- | --- | --- | --- | --- | --- | --- | --- | --- |
| CCC(=O)SCCNC1=C(C)C(=O)C2=C(C1=O)[C@@H](COC(N)=O)[C@@]1(OC)[C@H]3N[C@H]3CN21 [Compound 5] | 1.3 µg/mL (≈ 2.89 µM) | > 5 mg/kg | 0.31 µg/mL (≈ 0.688 µM) | < 0.02 µg/mL | < 0.02 µg/mL | 0.59 | 5 mg/kg | 0.94 | 4.7 mg/kg | < 0.02 µg/mL |
| CCC(=O)SCCNC1=C(C)C(=O)C2=C(C1=O)[C@H](COC(N)=O)[C@@]1(O)[C@@H]3[C@H](CN21)N3C (some centres unmarked) [Compound 6] | 100 µg/mL (≈ 222 µM) | – | 25 µg/mL (≈ 55.5 µM) | 13 µg/mL (≈ 28.9 µM) | 0.78 µg/mL (≈ 1.73 µM) | – | – | – | – | 13 µg/mL (≈ 28.9 µM) |
| CO[C@@]12[C@H](COC(N)=O)C3=C(C(=O)C(C)=C(NCCCCCCCCSC(C)=O)C3=O)N1C[C@@H]1N[C@@H]12 [Compound 12] | 5 µg/mL (≈ 9.6 µM) | 19.6 mg/kg | 1.3 µg/mL (≈ 2.5 µM) | 5 µg/mL (≈ 9.6 µM) | 0.31 µg/mL (≈ 0.595 µM) | 1.3 | 9.7 mg/kg | 4.6 | 45 mg/kg | 0.31 µg/mL (≈ 0.595 µM) |
| CC1=C(NCCSC(=O)c2ccccc2)C(=O)C2=C(C1=O)N1C[C@H]3[C@H](N3C)[C@]1(O)[C@H]2COC(N)=O (some centres unmarked) [Compound 14] | – | – | > 100 µg/mL | 50 µg/mL (≈ 100 µM) | 0.39 µg/mL (≈ 0.782 µM) | – | – | – | – | > 100 µg/mL |
| C=C1C2=C(C(=O)C(C)=C(NCCSC(=O)c3ccccc3)C2=O)N2C[C@H]3[C@H](N3C)[C@]12O (some centres unmarked) [Compound 15] | 25 µg/mL (≈ 57.1 µM) | 27.5 mg/kg | 50 µg/mL (≈ 114 µM) | > 100 µg/mL | 1.6 µg/mL (≈ 3.66 µM) | ≥ 0.74 | 27.5 mg/kg | ≥ 1.8 | ≥ 50 mg/kg | 25 µg/mL (≈ 57.1 µM) |
| CO[C@@]12[C@H](COC(N)=O)C3=C(C(=O)C(C)=C(NCCSC(=O)c4ccccc4)C3=O)N1C[C@H]1[C@@H]2N1C (some centres unmarked) [Compound 16] | > 40 µg/mL | – | 10 µg/mL (≈ 19.5 µM) | 0.63 µg/mL (≈ 1.23 µM) | 0.078 µg/mL (≈ 0.152 µM) | – | – | – | – | 0.16 µg/mL (≈ 0.312 µM) |
| CO[C@@]12[C@H](COC(N)=O)C3=C(C(=O)C(C)=C(NCCCCCCSC(=O)c4ccccc4)C3=O)N1C[C@@H]1N[C@@H]12 [Compound 17] | > 40 µg/mL | 32.2 mg/kg | 10 µg/mL (≈ 18 µM) | 2.5 µg/mL (≈ 4.51 µM) | 0.16 µg/mL (≈ 0.288 µM) | > 1.7 | 9.5 mg/kg | > 5.3 | > 50 mg/kg | 0.63 µg/mL (≈ 1.14 µM) |
| CO[C@@]12[C@H](COC(N)=O)C3=C(C(=O)C(C)=C(NCCSC(=O)c4ccc(F)cc4)C3=O)N1C[C@@H]1N[C@@H]12 [Compound 18] | 10 µg/mL (≈ 19.4 µM) | 5 mg/kg | 5 µg/mL (≈ 9.68 µM) | 0.16 µg/mL (≈ 0.31 µM) | < 0.02 µg/mL | 1.2 | 1.6 mg/kg | 3.8 | 6 mg/kg | < 0.02 µg/mL |
| CC1=C(NCCSC(=O)c2ccc(F)cc2)C(=O)C2=C(C1=O)N1C[C@H]3[C@H](N3C)[C@]1(O)[C@H]2COC(N)=O (some centres unmarked) [Compound 19, 7-N-[2-(4-fluorobenzoylthio)ethyl]mitomycin D] | – | 19.1 mg/kg | – | 100 µg/mL (≈ 194 µM) | 1.6 µg/mL (≈ 3.1 µM) | 0.89 | 5.6 mg/kg | 2.7 | 15 mg/kg | 6.3 µg/mL (≈ 12.2 µM) |
| CO[C@@]12[C@H](COC(N)=O)C3=C(C(=O)C(C)=C(NCCCCCCCCSC(=O)c4ccc(F)cc4)C3=O)N1C[C@@H]1N[C@@H]12 [Compound 20] | > 40 µg/mL | 13.0 mg/kg | 40 µg/mL (≈ 66.6 µM) | 0.63 µg/mL (≈ 1.05 µM) | 0.31 µg/mL (≈ 0.516 µM) | 1.6 | 16.3 mg/kg | 3.8 | 62.5 mg/kg | 0.63 µg/mL (≈ 1.05 µM) |
| CC1=C(NCCSC(=O)c2ccc(Br)cc2)C(=O)C2=C(C1=O)N1C[C@H]3[C@H](N3C)[C@]1(O)[C@H]2COC(N)=O (some centres unmarked) [Compound 22] | – | – | > 100 µg/mL | 25 µg/mL (≈ 43.3 µM) | < 0.049 µg/mL | – | – | – | – | 0.39 µg/mL (≈ 0.675 µM) |
| COc1ccc(C(=O)SCCNC2=C(C)C(=O)C3=C(C2=O)[C@@H](COC(N)=O)[C@@]2(OC)[C@H]4N[C@H]4CN32)cc1 [Compound 23] | 10 µg/mL (≈ 18.9 µM) | 5 mg/kg | 5 µg/mL (≈ 9.46 µM) | 0.16 µg/mL (≈ 0.303 µM) | < 0.02 µg/mL | 0.81 | 2.5 mg/kg | 2.5 | 6.3 mg/kg | < 0.02 µg/mL |
| COc1ccc(C(=O)SCCNC2=C(C)C(=O)C3=C(C2=O)[C@H](COC(N)=O)[C@@]2(O)[C@@H]4[C@H](CN32)N4C)cc1 (some centres unmarked) [Compound 24] | – | 25.5 mg/kg | – | 100 µg/mL (≈ 189 µM) | 1.6 µg/mL (≈ 3.03 µM) | 1.3 | 7.2 mg/kg | 3.8 | 27.5 mg/kg | 1.6 µg/mL (≈ 3.03 µM) |
| CC1=C(NCCSC(=O)c2ccc([N+](=O)[O-])cc2)C(=O)C2=C(C1=O)N1C[C@H]3[C@H](N3C)[C@]1(O)[C@H]2COC(N)=O (some centres unmarked) [Compound 25] | > 100 µg/mL | 15.9 mg/kg | 13 µg/mL (≈ 23.9 µM) | 13 µg/mL (≈ 23.9 µM) | 0.39 µg/mL (≈ 0.717 µM) | 1.6 | 6.9 mg/kg | 4.9 | 33.8 mg/kg | 3.1 µg/mL (≈ 5.7 µM) |
| CC(=S)SCCNC1=C(C)C(=O)C2=C(C1=O)[C@H](COC(N)=O)[C@@]1(O)[C@@H]3[C@H](CN21)N3C (some centres unmarked) [Compound 27, 7-N-(2-dithioacetyloxyethyl)mitomycin D] | 3.1 µg/mL (≈ 6.85 µM) | 15.5 mg/kg | 0.78 µg/mL (≈ 1.72 µM) | 0.39 µg/mL (≈ 0.862 µM) | < 0.049 µg/mL | 1.1 | 3.4 mg/kg | 3.9 | 13.1 mg/kg | 0.2 µg/mL (≈ 0.442 µM) |
| CO[C@@]12[C@H](COC(N)=O)C3=C(C(=O)C(C)=C(NCCSC(C)=S)C3=O)N1C[C@H]1[C@@H]2N1C (some centres unmarked) [Compound 28] | 2.5 µg/mL (≈ 5.36 µM) | 10.4 mg/kg | 1.3 µg/mL (≈ 2.79 µM) | 0.039 µg/mL (≈ 0.0836 µM) | < 0.02 µg/mL | 1.1 | 3.3 mg/kg | 4.0 | 13.1 mg/kg | < 0.02 µg/mL |
| C=C1C2=C(C(=O)C(C)=C(NCCSC(C)=S)C2=O)N2C[C@H]3[C@H](N3C)[C@]12O (some centres unmarked) [Compound 29] | 13 µg/mL (≈ 33.2 µM) | – | 25 µg/mL (≈ 63.9 µM) | > 100 µg/mL | 1.6 µg/mL (≈ 4.09 µM) | – | – | – | – | 3.1 µg/mL (≈ 7.92 µM) |
| CO[C@@]12[C@H](COC(N)=O)C3=C(C(=O)C(C)=C(NCCCCSC(C)=S)C3=O)N1C[C@@H]1N[C@@H]12 [Compound 30] | 5 µg/mL (≈ 10.4 µM) | 58.1 mg/kg | 1.3 µg/mL (≈ 2.7 µM) | 0.31 µg/mL (≈ 0.645 µM) | 0.31 µg/mL (≈ 0.645 µM) | > 1.1 | 37.7 mg/kg | > 2.7 | > 100 mg/kg | 0.31 µg/mL (≈ 0.645 µM) |
| CO[C@@]12[C@H](COC(N)=O)C3=C(C(=O)C(C)=C(NCCCCCCSC(C)=S)C3=O)N1C[C@@H]1N[C@@H]12 [Compound 31] | 10 µg/mL (≈ 19.7 µM) | 27.5 mg/kg | 2.5 µg/mL (≈ 4.91 µM) | 2.5 µg/mL (≈ 4.91 µM) | 2.5 µg/mL (≈ 4.91 µM) | > 1.5 | 28.1 mg/kg | > 3.6 | > 100 mg/kg | 1.3 µg/mL (≈ 2.56 µM) |
| CO[C@@]12[C@H](COC(N)=O)C3=C(C(=O)C(C)=C(N)C3=O)N1C[C@@H]1N[C@@H]12 [MMC, mitomycin C, reference compound] | – | 2.4 to 6.1 mg/kg | – | – | – | 1 | – | – | – | – |
